Measurements taken from patent US20220348590A1, “CYCLOOXYGENASE-2 INHIBITORS AND USES THEREOF” (The Board Institute, Inc., priority 2019, published 2022).
Like-named read-outs stand apart in the source and are kept apart here.

Target: T1, human recombinant COX2 (hCOX2) (UniProt P35354)
T1 sequence (P35354 1-604): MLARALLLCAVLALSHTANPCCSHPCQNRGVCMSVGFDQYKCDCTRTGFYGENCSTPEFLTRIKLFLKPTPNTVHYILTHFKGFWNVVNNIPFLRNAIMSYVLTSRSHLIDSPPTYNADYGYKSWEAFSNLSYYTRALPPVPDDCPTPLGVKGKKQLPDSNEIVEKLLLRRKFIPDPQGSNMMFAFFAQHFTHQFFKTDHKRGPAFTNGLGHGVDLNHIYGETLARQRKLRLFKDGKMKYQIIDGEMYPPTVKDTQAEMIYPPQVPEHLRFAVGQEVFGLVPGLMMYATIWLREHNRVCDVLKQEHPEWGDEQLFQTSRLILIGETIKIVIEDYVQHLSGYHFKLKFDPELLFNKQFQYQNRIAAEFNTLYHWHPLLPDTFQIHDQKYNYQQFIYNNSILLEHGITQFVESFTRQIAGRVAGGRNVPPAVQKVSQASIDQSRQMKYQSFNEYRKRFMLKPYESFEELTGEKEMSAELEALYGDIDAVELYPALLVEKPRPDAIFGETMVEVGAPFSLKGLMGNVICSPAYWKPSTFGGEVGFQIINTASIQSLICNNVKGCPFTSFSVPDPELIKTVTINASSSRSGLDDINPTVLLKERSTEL
Test: LCMS-based COX2 enzymatic inhibition assay (PGE2 quantification)
Assay type: biochemical
Set-up: COX2 2 minutes pge2/pge2d4 area ratio Avg; other: 2 minutes; readout pge2/pge2d4 area ratio; average; COX2 2 minutes pge2/pge2d4 area ratio Avg; LLE; average LLE; COX2 2 minutes pge2 area (counts) Avg; readout pge2 area (counts); other: 2 min; "ovine COX2 (oCOX2), human recombinant COX2 (hCOX2)"
Settings: for COX2 2 minutes pge2/pge2d4 area ratio Avg. LLE / COX2 2 minutes pge2 area (counts) Avg. LLE / COX2 10 minutes pge2 area (counts) Avg. LLE: average LLE; for IC50: average
Summary of the method: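 Ovine COX-1 (0.1 μg) or human recombinant COX2 (0.2 μg) in 100 mM Tris.HCl pH 8.0 with hematin and epinephrine, preincubated with inhibitor 10 min at 37 °C. Reaction with 5 μM arachidonic acid stopped after 2 min with HCl; PGE2 quantified by LC-MS-MS. IC50 from 12 concentrations in triplicate.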

[1] = 2 minutes, readout pge2/pge2d4 area ratio
[2] = 2 minutes, readout pge2 area (counts)
[3] = read-out: COX2 2 minutes pge2/pge2d4 area ratio Avg. IC50 (microM), 2 minutes, readout pge2/pge2d4 area ratio
[4] = 10 minutes, readout pge2 area (counts)
[5] = 10 minutes, readout pge2 area (counts), read-out: COX2 10 minutes pge2 area (counts) Avg. IC50

SMILES | IC50 [3] [µM] | further results
CS(=O)(=O)c1ccc(-c2cncc(OCc3nccs3)c2)cc1 [Compound 289] | 5.2 | COX2 2 minutes pge2/pge2d4 area ratio Avg. LLE [1]: 2.234; COX2 2 minutes pge2 area (counts) Avg. LLE [2]: 2.234
CS(=O)(=O)c1ccc(-c2ccnc(NCc3ccoc3)c2)cc1 [Compound 290] | 5.2 | –
COc1ncc(NCc2cocn2)nc1-c1ccc(S(C)(=O)=O)cc1 [Compound 291] | 5.2 | COX2 2 minutes pge2/pge2d4 area ratio Avg. LLE [1]: 3.954; COX2 2 minutes pge2 area (counts) Avg. LLE [2]: 3.954
CS(=O)(=O)c1ccc(-c2cccc(C[C@@H](O)c3cccs3)n2)cc1 [Compound 292] | – | COX2 2 minutes pge2/pge2d4 area ratio Avg. LLE [1]: 2.424; IC50 (2 minutes, readout pge2/pge2d4 area ratio, read-out: COX2 2 minutes pge2/pge2d4 area ratio Avg. IC50): 5.2 µM
CC(C)COc1cncc(-c2ccc(S(C)(=O)=O)cc2)n1 [Compound 293] | 5.2 | COX2 2 minutes pge2/pge2d4 area ratio Avg. LLE [1]: 3.394; COX2 2 minutes pge2 area (counts) Avg. LLE [2]: 3.394; COX2 10 minutes pge2 area (counts) Avg. LLE [4]: 3.394
CS(=O)(=O)c1ccc(-c2cncc(OCc3ccc(F)cc3)n2)cc1 [Compound 294] | 5.2 | COX2 2 minutes pge2 area (counts) Avg. LLE [2]: 2.694
CSc1ccc(-c2cccc(NCc3ccoc3)n2)cc1 [Compound 295] | 5.2 | –
CC(C)(C)OC(=O)N(c1ccoc1)c1cccc(-c2ccc(S(C)(=O)=O)cc2)n1 [Compound 296] | 5.2 | –
COc1cc(S(C)(=O)=O)ccc1-c1cccc(NCc2ccoc2)n1 [Compound 297] | 5.2 | –
CN1CCC(Nc2cncc(-c3ccc(S(C)(=O)=O)cc3)n2)CC1 [Compound 298] | 5.2 | –
COc1cncc(-c2ccc(S(C)(=O)=O)cc2)n1 [Compound 299] | 5.2 | COX2 10 minutes pge2 area (counts) Avg. LLE [4]: 5.551; IC50 [5]: 0.489 µM
CS(=O)(=O)c1ccc(-c2cccc(C[C@H](O)c3cccs3)n2)cc1 [Compound 300] | 5.2 | –
CS(=O)(=O)c1ccc(-c2cc3c(cn2)cnn3Cc2cccs2)cc1 [Compound 301] | 5.2 | –
CS(=O)(=O)c1ccc(-c2cccc(NC(=O)c3cccs3)n2)cc1 [Compound 302] | 5.2 | –
CS(=O)(=O)c1ccc(-c2cncc([S+]([O-])Cc3cccs3)n2)cc1 (stereo not drawn) [Compound 303] | 5.2 | –
CS(=O)(=O)c1ccc(-c2cncc(N3Cc4ccncc4C3)n2)cc1 [Compound 304] | 5.2 | –
CS(=O)(=O)c1ccc(-c2nc(NCc3cccs3)cnc2C(=O)O)cc1 [Compound 305] | 5.2 | –
CN1CC[C@@H](CNc2cncc(-c3ccc(S(C)(=O)=O)cc3)n2)C1 [Compound 306] | 5.2 | COX2 2 minutes pge2 area (counts) Avg. LLE [2]: 4.594
CN1CC[C@H](CNc2cncc(-c3ccc(S(C)(=O)=O)cc3)n2)C1 [Compound 307] | 5.2 | –

SMILES | IC50 [3] [µM] | further results
CS(=O)(=O)c1ccc(-c2ccc3c(ncn3Cc3cccs3)n2)cc1 [Compound 308] | 5.2 | –
Cc1ccc(COc2cncc(-c3ccc(S(C)(=O)=O)cc3)n2)cc1 [Compound 309] | 5.2 | COX2 2 minutes pge2 area (counts) Avg. LLE [2]: 2.514
CS(=O)(=O)c1ccc(Oc2cccc(NCc3cccs3)n2)cc1 [Compound 310] | 5.2 | –
CS(=O)(=O)c1ccc(-n2ccc3ccc(NC(=O)c4cccs4)nc32)cc1 [Compound 311] | 5.2 | –
CS(=O)(=O)c1ccc(-c2cncc(OCCc3cccs3)n2)cc1 [Compound 312] | 5.2 | COX2 2 minutes pge2 area (counts) Avg. LLE [2]: 2.744
CS(=O)(=O)c1ccc(-c2cncc(N3Cc4ccccc4C3)n2)cc1 [Compound 313] | 5.2 | –
CS(=O)(=O)c1ccc(-c2cc(OCc3cccs3)ccn2)cc1 [Compound 315] | 5.2 | –
CS(=O)(=O)c1ccc(-c2cnc(O)c(NCc3cccs3)n2)cc1 [Compound 316] | 5.2 | COX2 2 minutes pge2 area (counts) Avg. LLE [2]: 3.634
CS(=O)(=O)c1ccc(-c2cnc3cn(Cc4cccs4)nc3c2)cc1 [Compound 317] | 5.2 | –
CS(=O)(=O)c1ccc(-c2cc(OCc3cccs3)ncn2)cc1 [Compound 318] | 5.2 | –
CS(=O)(=O)c1ccc(-c2cncc(N3CCC4(CCCC4)CC3)n2)cc1 [Compound 319] | 5.2 | –
CS(=O)(=O)c1ccc(-c2cncc(C#Cc3cccs3)n2)cc1 [Compound 320] | 5.2 | –
CS(=O)(=O)c1ccc(-c2cnnc(OCc3cccs3)c2)cc1 [Compound 321] | 5.2 | –
CS(=O)(=O)c1ccc(-c2cc(OCc3ccco3)cnn2)cc1 [Compound 323] | 5.2 | –
CS(=O)(=O)c1ccc(-c2cncc(N3CCc4ccccc4C3)n2)cc1 [Compound 324] | 5.2 | –
CS(=O)(=O)c1ccc(-c2cc3nn(Cc4cccs4)cc3cn2)cc1 [Compound 325] | 5.2 | –
CS(=O)(=O)c1ccc(-c2cncc(N3CCCC3)n2)cc1 [Compound 326] | 5.2 | COX2 2 minutes pge2 area (counts) Avg. LLE [2]: 4.034; COX2 10 minutes pge2 area (counts) Avg. LLE [4]: 4.754; IC50 [5]: 0.99 µM
CS(=O)(=O)c1ccc(-c2nc(NCc3cccs3)no2)cc1 [Compound 327] | 5.2 | –
CS(=O)(=O)c1ccc(-c2cncc(N3Cc4cccnc4C3)n2)cc1 [Compound 328] | 5.2 | COX2 2 minutes pge2 area (counts) Avg. LLE [2]: 4.414
